The NIST ThermoML archive (doi:10.1021/acs.jced.5b00845)
Numbers after ± are expanded uncertainties.

Legend:
[1] = cn = amount concentration of the nth substance listed, in mol/dm3; details: 100 kPa, Liquid, Capillary tube (Ostwald / Ubbelohde) method
[2] = mn = molality of the nth substance listed, in mol/kg; details: 100 kPa, Liquid, Capillary tube (Ostwald / Ubbelohde) method
[3] = 100 kPa, Liquid, Capillary tube (Ostwald / Ubbelohde) method

O=C(CO)[C@@H](O)[C@H](O)[C@H](O)CO [D-fructose] + O
viscosity [mPa·s], [1]
Details | c1 = 0.0628 | c1 = 0.06594 | c1 = 0.08345 | c1 = 0.1124 | c1 = 0.1285 | c1 = 0.1523
288.15 K | 1.174 ± 0.12 | 1.175 ± 0.12 | 1.185 ± 0.12 | 1.201 ± 0.12 | 1.209 ± 0.12 | 1.222 ± 0.12
298.15 K | 0.916 ± 0.092 | 0.917 ± 0.092 | 0.924 ± 0.093 | 0.935 ± 0.094 | 0.941 ± 0.094 | 0.951 ± 0.095
308.15 K | 0.739 ± 0.074 | 0.74 ± 0.074 | 0.745 ± 0.075 | 0.754 ± 0.076 | 0.759 ± 0.076 | 0.766 ± 0.077
318.15 K | 0.61 ± 0.061 | 0.611 ± 0.061 | 0.614 ± 0.062 | 0.621 ± 0.062 | 0.624 ± 0.063 | 0.629 ± 0.063

O=P([O-])(O)O.[Na+] [sodium dihydrogen phosphate] + O
viscosity [mPa·s], [2]
Details | 288.15 K | 298.15 K | 308.15 K | 318.15 K
m1 = 0.5 | 1.427 ± 0.14 | 1.093 ± 0.11 | 0.88 ± 0.088 | 0.723 ± 0.073
m1 = 1 | 1.731 ± 0.17 | 1.332 ± 0.13 | 1.074 ± 0.11 | 0.875 ± 0.088
m1 = 1.5 | 2.139 ± 0.21 | 1.63 ± 0.16 | 1.267 ± 0.13 | 1.051 ± 0.11
m1 = 2 | 2.65 ± 0.27 | 1.987 ± 0.2 | 1.457 ± 0.15 | 1.257 ± 0.13

O=P([O-])([O-])[O-].[K+].[K+].[K+] [tripotassium phosphate] + O
viscosity [mPa·s], [2]
Details | 288.15 K | 298.15 K | 308.15 K | 318.15 K
m1 = 0.5 | 1.414 ± 0.14 | 1.133 ± 0.11 | 0.915 ± 0.092 | 0.708 ± 0.071
m1 = 1 | 1.7 ± 0.17 | 1.349 ± 0.14 | 1.09 ± 0.11 | 0.838 ± 0.084
m1 = 1.5 | 2.004 ± 0.2 | 1.598 ± 0.16 | 1.281 ± 0.13 | 1.003 ± 0.1
m1 = 2 | 2.299 ± 0.23 | 1.806 ± 0.18 | 1.441 ± 0.14 | 1.116 ± 0.11

O [water]
[3]
Details | viscosity [mPa·s]
288.15 K | 1.138 ± 0.11
298.15 K | 0.89 ± 0.089
308.15 K | 0.719 ± 0.072
318.15 K | 0.596 ± 0.06

CO[C@H]1O[C@H](CO)[C@@H](O)[C@H](O)[C@@H]1O [α-methyl mannopyranoside] + O
viscosity [mPa·s], [2]
Details | m1 = 0.05551 | m1 = 0.0769 | m1 = 0.09681 | m1 = 0.1166 | m1 = 0.1344 | m1 = 0.1466 | m1 = 0.1632
288.15 K | 1.172 ± 0.12 | 1.185 ± 0.12 | 1.197 ± 0.12 | 1.209 ± 0.12 | 1.22 ± 0.12 | 1.227 ± 0.12 | 1.237 ± 0.12
298.15 K | 0.916 ± 0.092 | 0.925 ± 0.093 | 0.934 ± 0.094 | 0.943 ± 0.094 | 0.951 ± 0.095 | 0.956 ± 0.096 | 0.964 ± 0.097
308.15 K | 0.739 ± 0.074 | 0.746 ± 0.075 | 0.753 ± 0.075 | 0.76 ± 0.076 | 0.766 ± 0.077 | 0.77 ± 0.077 | 0.775 ± 0.078
318.15 K | 0.611 ± 0.061 | 0.617 ± 0.062 | 0.623 ± 0.062 | 0.628 ± 0.063 | 0.633 ± 0.063 | 0.636 ± 0.064 | 0.64 ± 0.064
